ChEMBL document CHEMBL5247608, “HIV-1 gp120-CXCR4 recognition probed with synthetic nanomolar affinity D-peptides containing fragments of gp120 V3 loop” (Eur J Med Chem, 2022)
Calls of active or inactive are those of the source. The calls are words filed in the database; no cut-off is given here.

Legend:
[1] = molecular target: T1, C-X-C chemokine receptor type 4 (Homo sapiens, UniProt P61073); test: Displacement of 12G5 mAb from CXCR4 (unknown origin) expressed in CHO cells incubated for 40 mins by spectrophotometric method; type: cell-based
T1 sequence (P61073 whole entry): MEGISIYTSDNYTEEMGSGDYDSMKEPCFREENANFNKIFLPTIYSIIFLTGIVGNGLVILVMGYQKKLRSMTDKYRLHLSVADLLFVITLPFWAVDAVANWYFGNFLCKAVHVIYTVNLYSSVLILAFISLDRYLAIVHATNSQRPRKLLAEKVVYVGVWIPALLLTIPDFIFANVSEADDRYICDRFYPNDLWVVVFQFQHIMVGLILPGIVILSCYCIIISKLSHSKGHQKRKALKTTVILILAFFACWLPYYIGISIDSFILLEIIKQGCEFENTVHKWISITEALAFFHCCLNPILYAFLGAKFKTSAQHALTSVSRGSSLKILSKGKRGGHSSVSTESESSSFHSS

[2] = molecular target: T1, C-X-C chemokine receptor type 4; test: Antagonist activity against CXCR4 in human SUP-T1 cells assessed as inhibition of SDF-1alpha-induced intracellular calcium mobilization by Fluo-4AM dye based fluorescence analysis; type: cell-based; conditions: filed as antagonist, dose 0.01-10 µM
[3] = molecular target: T1, C-X-C chemokine receptor type 4; test: Antagonist activity against CXCR4 in human SUP-T1 cells assessed as inhibition of SDF-1alpha-induced intracellular calcium mobilization at 10 uM by Fluo-4AM dye based fluorescence analysis; type: cell-based; conditions: filed as antagonist
[4] = molecular target: T1, C-X-C chemokine receptor type 4; test: Antagonist activity against CXCR4 in human SUP-T1 cells assessed as inhibition of SDF-1alpha-induced cell migration preincubated with cells for 30 mins followed by incubation with SDF-1alpha for 3 hrs by CellTiter-96 reagent based transwell assay; conditions: filed as antagonist, time 210.0 min
[5] = molecular target: T1, C-X-C chemokine receptor type 4; test: Antagonist activity against CXCR4 in human SUP-T1 cells assessed as inhibition of SDF-1alpha-induced cell migration at 10 uM preincubated with cells for 30 mins followed by incubation with SDF-1alpha for 3 hrs by CellTiter-96 reagent based transwell assay; conditions: filed as antagonist, time 210.0 min
[6] = molecular target: T1, C-X-C chemokine receptor type 4; test: Antagonist activity against EGFP-tagged CXCR4 (unknown origin) transfected in CHO cells assessed as inhibition of SDF-1alpha-induced receptor internalization at 0.01 to 10 uM preincubated for 10 mins followed by SDF-1alpha addition by confocal microscopy; type: cell-based; conditions: filed as antagonist, dose 0.01-10 µM
[7] = molecular target: T1, C-X-C chemokine receptor type 4; test: Antagonist activity against EGFP-tagged CXCR4 (unknown origin) transfected in CHO cells assessed as inhibition of SDF-1alpha-induced receptor internalization at 10 uM preincubated for 10 mins followed by SDF-1alpha addition by confocal microscopy; type: cell-based; conditions: filed as antagonist
[8] = tested on: Human immunodeficiency virus 1; test: Antiviral activity against HIV-1 X4 NL4-3 infected in human PBMC assessed as inhibition of viral replication by measuring reduction in p24 antigen level at 10 uM measured after 5 days by ELISA; type: functional, organism-based; conditions: time 5.0 day
[9] = tested on: Human immunodeficiency virus 1; test: Antiviral activity against HIV-1 R5 Bal-6 infected in human PBMC assessed as inhibition of viral replication by measuring reduction in p24 antigen level at 10 uM measured after 5 days by ELISA; type: functional, organism-based; conditions: time 5.0 day
[10] = Cytotoxicity against human PBMC assessed as reduction in cell viability at 0.016 to 10 uM incubated for 5 days by CellTiter-Blue assay; type: toxicity, cell-based; conditions: 120 h, dose 0.016-10 µM, time 5 day
[11] = tested on: C-X-C chemokine receptor type 4 (Homo sapiens), P61073 [F87A]; test: Displacement of 12G5 mAb from CXCR4 F87A mutant (unknown origin) expressed in CHO cells at 200 nM incubated for 40 mins by spectrophotometric method; type: cell-based
C-X-C chemokine receptor type 4 (Homo sapiens), P61073 [F87A], sequence (P61073 whole entry F87A): as the sequence (P61073 whole entry) above, with F87A counted along it

[12] = tested on: C-X-C chemokine receptor type 4 (Homo sapiens), P61073 [W94A]; test: Displacement of 12G5 mAb from CXCR4 W94A mutant (unknown origin) expressed in CHO cells at 200 nM incubated for 40 mins by spectrophotometric method; type: cell-based
C-X-C chemokine receptor type 4 (Homo sapiens), P61073 [W94A], sequence (P61073 whole entry W94A): as the sequence (P61073 whole entry) above, with W94A counted along it

[13] = tested on: C-X-C chemokine receptor type 4 (Homo sapiens), P61073 [N119A]; test: Displacement of 12G5 mAb from CXCR4 N119A mutant (unknown origin) expressed in CHO cells at 200 nM incubated for 40 mins by spectrophotometric method; type: cell-based
C-X-C chemokine receptor type 4 (Homo sapiens), P61073 [N119A], sequence (P61073 whole entry N119A): as the sequence (P61073 whole entry) above, with N119A counted along it

[14] = tested on: C-X-C chemokine receptor type 4 (Homo sapiens), P61073 [H113A]; test: Displacement of 12G5 mAb from CXCR4 H113A mutant (unknown origin) expressed in CHO cells at 200 nM incubated for 40 mins by spectrophotometric method; type: cell-based
C-X-C chemokine receptor type 4 (Homo sapiens), P61073 [H113A], sequence (P61073 whole entry H113A): as the sequence (P61073 whole entry) above, with H113A counted along it

[15] = tested on: C-X-C chemokine receptor type 4 (Homo sapiens), P61073 [W161A]; test: Displacement of 12G5 mAb from CXCR4 W161A mutant (unknown origin) expressed in CHO cells at 200 nM incubated for 40 mins by spectrophotometric method; type: cell-based
C-X-C chemokine receptor type 4 (Homo sapiens), P61073 [W161A], sequence (P61073 whole entry W161A): as the sequence (P61073 whole entry) above, with W161A counted along it

[16] = tested on: C-X-C chemokine receptor type 4 (Homo sapiens), P61073 [D193A]; test: Displacement of 12G5 mAb from CXCR4 D193A mutant (unknown origin) expressed in CHO cells at 200 nM incubated for 40 mins by spectrophotometric method; type: cell-based
C-X-C chemokine receptor type 4 (Homo sapiens), P61073 [D193A], sequence (P61073 whole entry D193A): as the sequence (P61073 whole entry) above, with D193A counted along it

[17] = tested on: C-X-C chemokine receptor type 4 (Homo sapiens), P61073 [W195A]; test: Displacement of 12G5 mAb from CXCR4 W195A mutant (unknown origin) expressed in CHO cells at 200 nM incubated for 40 mins by spectrophotometric method; type: cell-based
C-X-C chemokine receptor type 4 (Homo sapiens), P61073 [W195A], sequence (P61073 whole entry W195A): as the sequence (P61073 whole entry) above, with W195A counted along it

[18] = tested on: C-X-C chemokine receptor type 4 (Homo sapiens), P61073 [D262N]; test: Displacement of 12G5 mAb from CXCR4 D262N mutant (unknown origin) expressed in CHO cells at 200 nM incubated for 40 mins by spectrophotometric method; type: cell-based
C-X-C chemokine receptor type 4 (Homo sapiens), P61073 [D262N], sequence (P61073 whole entry D262N): as the sequence (P61073 whole entry) above, with D262N counted along it

[19] = tested on: C-X-C chemokine receptor type 4 (Homo sapiens), P61073 [E288A]; test: Displacement of 12G5 mAb from CXCR4 E288A mutant (unknown origin) expressed in CHO cells at 200 nM incubated for 40 mins by spectrophotometric method; type: cell-based
C-X-C chemokine receptor type 4 (Homo sapiens), P61073 [E288A], sequence (P61073 whole entry E288A): as the sequence (P61073 whole entry) above, with E288A counted along it

[20] = tested on: C-X-C chemokine receptor type 4 (Homo sapiens), P61073 [E288D]; test: Displacement of 12G5 mAb from CXCR4 E288D mutant (unknown origin) expressed in CHO cells at 200 nM incubated for 40 mins by spectrophotometric method; type: cell-based
C-X-C chemokine receptor type 4 (Homo sapiens), P61073 [E288D], sequence (P61073 whole entry E288D): as the sequence (P61073 whole entry) above, with E288D counted along it

[21] = tested on: C-X-C chemokine receptor type 4 (Homo sapiens), P61073 [Y45A]; test: Displacement of 12G5 mAb from CXCR4 Y45A mutant (unknown origin) expressed in CHO cells at 200 nM incubated for 40 mins by spectrophotometric method; type: cell-based; conditions: filed as antagonist
C-X-C chemokine receptor type 4 (Homo sapiens), P61073 [Y45A], sequence (P61073 whole entry Y45A): as the sequence (P61073 whole entry) above, with Y45A counted along it

[22] = tested on: C-X-C chemokine receptor type 4 (Homo sapiens), P61073 [T117A]; test: Displacement of 12G5 mAb from CXCR4 T117A mutant (unknown origin) expressed in CHO cells at 200 nM incubated for 40 mins by spectrophotometric method; type: cell-based; conditions: filed as antagonist
C-X-C chemokine receptor type 4 (Homo sapiens), P61073 [T117A], sequence (P61073 whole entry T117A): as the sequence (P61073 whole entry) above, with T117A counted along it

[23] = tested on: C-X-C chemokine receptor type 4 (Homo sapiens), P61073 [D171A]; test: Displacement of 12G5 mAb from CXCR4 D171A mutant (unknown origin) expressed in CHO cells at 200 nM incubated for 40 mins by spectrophotometric method; type: cell-based; conditions: filed as antagonist
C-X-C chemokine receptor type 4 (Homo sapiens), P61073 [D171A], sequence (P61073 whole entry D171A): as the sequence (P61073 whole entry) above, with D171A counted along it

[24] = tested on: Human immunodeficiency virus 1; test: Antiviral activity against HIV-1 X4 NL4-3 infected in human PBMC assessed as inhibition of viral replication by measuring reduction in p24 antigen level measured after 5 days by ELISA; type: functional, organism-based; conditions: Human immunodeficiency virus 1, X4 NL4-3, PBMC, 120 h
[25] = tested on: Human immunodeficiency virus 1; test: Antiviral activity against HIV-1 R5 Bal-6 infected in human PBMC assessed as inhibition of viral replication by measuring reduction in p24 antigen level at 0.1 to 10 uM measured after 5 days by ELISA; type: functional, organism-based; conditions: dose 0.1-10 µM, time 5.0 day

Question: For `CC(C)C[C@@H](N)C(=O)NCC(=O)N[C@H](C)C(=O)N[C@H](CO)C(=O)N[C@H](Cc1c[nH]c2ccccc12)C(=O)N[C@H](Cc1cnc[nH]1)C(=O)N[C@H](CCCNC(=N)N)C(=O)N1CCC[C@@H]1C(=O)N[C@H](CC(=O)O)C(=O)N[C@H](CCCCN)C(=O)N[C@H](CCCCN)C(=O)N[C@H](CCCNC(=N)N)C(=O)N(CCCCCC(=O)O)[C@H](CCCCN)C(=O)N[C@H](CCCNC(=N)N)C(=O)N[C@H](CCCCN)C(=O)N[C@H](CCC(N)=O)C(=O)N[C@H](CCCNC(=N)N)C(=O)NCC(=O)N1CCC[C@@H]1C(=O)NCC(=O)N[C@H](CCCNC(=N)N)C(=O)N[C@H](C)C(=O)N[C@H](Cc1ccccc1)C(N)=O`, which IC50 [1] is on record?
Answer: 43.4 nM

Question: And the inhibition [2]?
Answer: Dose-Dependent Effect

Question: And the inhibition [3]?
Answer: 100%

Question: What about the inhibition [4] of the same compound?
Answer: Dose-Dependent Effect

Question: And the inhibition [5]?
Answer: 100%

Question: What about the inhibition [6] of the same compound?
Answer: Active

Question: And the inhibition [7]?
Answer: 100%

Question: And the Activity [8]?
Answer: Active

Question: What about the Activity [9] of the same compound?
Answer: Active

Question: And the Activity [10]?
Answer: Non-Toxic

Question: What about the inhibition [11] of the same compound?
Answer: inactive

Question: And the inhibition [12]?
Answer: inactive

Question: What about the inhibition [13] of the same compound?
Answer: inactive

Question: And the inhibition [14]?
Answer: inactive

Question: And the inhibition [15]?
Answer: inactive

Question: What about the inhibition [16] of the same compound?
Answer: inactive

Question: What about the inhibition [17] of the same compound?
Answer: inactive

Question: What about the inhibition [18] of the same compound?
Answer: inactive

Question: What about the inhibition [19] of the same compound?
Answer: inactive

Question: What about the inhibition [20] of the same compound?
Answer: inactive

Question: What about the inhibition [21] of the same compound?
Answer: Active

Question: What about the inhibition [22] of the same compound?
Answer: Active

Question: And the inhibition [23]?
Answer: Active

Question: With `CC(C)C[C@@H](N)C(=O)NCC(=O)N[C@H](C)C(=O)N[C@H](CO)C(=O)N[C@H](Cc1c[nH]c2ccccc12)C(=O)N[C@H](Cc1cnc[nH]1)C(=O)N[C@H](CCCNC(=N)N)C(=O)N1CCC[C@@H]1C(=O)N[C@H](CC(=O)O)C(=O)N[C@H](CCCCN)C(=O)N[C@H](CCCCN)C(=O)N[C@H](CCCNC(=N)N)C(=O)N(CCCCCC(=O)O)[C@H](CCCCN[C@@H](CS)C(=O)N[C@@H](C(=O)N[C@H](CCCNC(=N)N)C(=O)N1CCC[C@@H]1C(=O)N[C@H](CC(N)=O)C(=O)N[C@H](CC(N)=O)C(=O)N[C@H](CC(N)=O)C(=O)N[C@@H](C(=O)N[C@H](CCCCN)C(=O)N[C@H](CCCNC(=N)N)C(N)=O)[C@@H](C)O)[C@@H](C)O)C(N)=O` as the compound, how does the IC50 [1] read?
Answer: 26.8 nM

Question: What about the Activity [8] of the same compound?
Answer: Active

Question: And the IC50 [24]?
Answer: 10.9 µM

Question: What about the Activity [25] of the same compound?
Answer: inactive

Question: What about the Activity [10] of the same compound?
Answer: Non-Toxic
